Each molecule was assayed against T1, Syk catalytic domain (aa 356-635 with a C-terminal His-tag) (Homo sapiens, UniProt P43405) (assay: In vitro Syk kinase activity measured by trFRET, Syk catalytic domain). Conditions: not given.
T1 construct: His-tag (C); made in house
Format: biochemical
Protocol: In Vitro Syk Kinase Activity Measured by Time-Resolved Fluorescence Resonance Energy Transfer (trFRET)
0.14 nM purified Syk catalytic domain (aa 356-635 with a C-terminal His-tag purified in-house by immobilized metal ion affinity chromatography) was mixed with 0.2 μM peptide substrate (biotin-TYR1, Sequence: Biotin-(Ahx)-GAEEEIYAAFFA-COOH) at varying inhibitor concentrations in reaction buffer: 50 mM MOPSO pH 6.5, 10 mM MgCl2, 2 mM MnCl2, 2.5 mM DTT, 0.01% BSA, 0.1 mM Na3VO4 and 0.001 mM ATP. After about 60 min incubation at rt, the reaction was quenched by addition of EDTA (final concentration: 100 mM) and developed by addition of revelation reagents (final approximate concentrations: 30 mM HEPES pH 7.0, 0.06% BSA, 0.006% Tween-20, 0.24 M KF, 80 ng/mL PT66K (europium labeled anti-phosphotyrosine antibody cat #61T66KLB Cisbio, Bedford, Mass.) and 0.6 μg/mL SAXL (Phycolink streptavidin-allophycocyanin acceptor, cat #PJ255, Prozyme, San Leandro, Calif.). The developed reaction was incubated in the dark either at about 4° C. for about 14 h or for about 60 min at rt, then read via a time-resolved fluorescence detector (Rubystar, BMG) using a 337 nm laser for excitation and monitoring emission wavelengths at 665 nm. Within the linear range of the assay, the observed signal at 665 nm was directly related to phosphorylated product and can be used to calculate the IC50 values.
MOPSO buffer contains: 50 mM MOPSO pH 6.5, 10 mM MgCl2, 2 mM MnCl2, 2.5 mM DTT, 0.01% BSA, and 0.1 mM Na3VO4 HEPES buffer contains: 50 mM HEPES pH 7.1, 2.5 mM DTT, 10 mM MgCl2, 2 mM MnCl2, 0.01% BSA, and 0.1 mM Na3VO4 MOPS buffer contains: 20 mM MOPS pH 7.2, 10 mM MgCl2, 5 mM EGTA, 5 mM Beta-phosphoglycerol, 1 mM Na3VO4, 0.01% Triton-X-100 and 1 mM DTT
Biotin-TYR1-peptide sequence: Biotin-(Ahx)-GAEEEIYAAFFA-COOH Biotin-TYR2-peptide sequence: Biotin-(Ahx)-AEEEYFFLFA-amide KinEASE 51 peptides were purchased from Cisbio (cat #62ST0PEB, Bedford, Mass.)
PT66K was purchased from Cisbio (cat #61T66KLB, Bedford, Mass.) EuSTK was purchased from Cisbio (cat #62ST0PEB, Bedford, Mass.) SAXL was purchased from Prozyme (cat #PJ25S, San Leandro, Calif.) Human T-Blasts IL-2 pSTAT5 Cellular Assay
In the case of COc1ccc(-c2nc(C)n3c2cnc2[nH]ccc23)c(OC)c1 [AC.1.1], the IC50 is reported as 1 to 10 µM.
COc1ccc(-c2nc(C)n3c2cnc2[nH]ccc23)c(CO)c1 [AC.1.2] was tested, and the IC50 was 1 to 10 µM.
For Cc1nc(-c2ccc(CO)nc2)c2cnc3[nH]ccc3n12 [AC.1.3], the IC50 was 0.1 to 1 µM.
For CCCNC(=O)c1cccc(-c2nc(C)n3c2cnc2[nH]ccc23)c1 [AC.1.4], the IC50 was 0.1 to 1 µM.
In the case of Cc1nc(-c2cccc3nccnc23)c2cnc3[nH]ccc3n12 [AC.1.5], the IC50 is reported as greater than 10 µM.
In the case of Cc1nc(-c2ccc(S(C)(=O)=O)cc2)c2cnc3[nH]ccc3n12 [AC.1.6], the IC50 is reported as 0.1 to 1 µM.
In the case of Cc1nc(-c2ccc(C(C)(C)CO)cc2)c2cnc3[nH]ccc3n12 [AC.1.7], the IC50 is reported as less than 0.1 µM.
Work on CNS(=O)(=O)c1ccc(-c2nc(C)n3c2cnc2[nH]ccc23)cc1 [AC.1.9] yielded an IC50 of less than 0.1 µM.
Cc1nc(-c2ccc(S(=O)(=O)N(C)C)cc2)c2cnc3[nH]ccc3n12 [AC.1.10] gave an IC50 of 0.1 to 1 µM.
With Cc1nc(-c2ccc(S(=O)(=O)C(C)C)cc2)c2cnc3[nH]ccc3n12 [AC.1.11] the IC50 was 0.1 to 1 µM.
Cc1nc(-c2ccc(S(=O)(=O)N3CCN(C)CC3)cc2)c2cnc3[nH]ccc3n12 [AC.1.12] gave an IC50 of 1 to 10 µM.
Cc1nc(C2=CCN(C(=O)OC(C)(C)C)CC2)c2cnc3[nH]ccc3n12 [AC.1.13] was tested, and the IC50 was 1 to 10 µM.
In the case of Cc1nc(-c2ccc(OCCN3CCOCC3)cc2)c2cnc3[nH]ccc3n12 [AC.1.14], the IC50 is reported as less than 0.1 µM.
COCCOc1ccc(-c2nc(C)n3c2cnc2[nH]ccc23)cc1 [AC.1.15] was tested, and the IC50 was 0.1 to 1 µM.
Cc1nc(-c2ccc(OCC(=O)O)cc2)c2cnc3[nH]ccc3n12 [AC.1.16] gave an IC50 of 0.1 to 1 µM.
COc1ccc(-c2nc(C)n3c2cnc2[nH]ccc23)c(C)c1 [AC.1.17] gave an IC50 greater than 10 µM.
Molecule COc1ccc(-c2nc(C)n3c2cnc2[nH]ccc23)c(F)c1 [AC.1.18] has an IC50 of 1 to 10 µM.
COc1ccc(-c2nc(C)n3c2cnc2[nH]ccc23)c(Cl)c1 [AC.1.19] gave an IC50 of 1 to 10 µM.
With Cc1nc(-c2ccc(C(C)(C)O)c(F)c2)c2cnc3[nH]ccc3n12 [AC.1.20] the IC50 was less than 0.1 µM.
COc1ccc(-c2nc(C)n3c2cnc2[nH]ccc23)cn1 [AC.1.21] was tested, and the IC50 was 0.1 to 1 µM.
Work on Cc1nc(-c2cccnc2)c2cnc3[nH]ccc3n12 [AC.1.22] yielded an IC50 of 1 to 10 µM.
Molecule COc1ncc(-c2nc(C)n3c2cnc2[nH]ccc23)cn1 [AC.1.23] has an IC50 of 1 to 10 µM.
Cc1nc(-c2ccc(C(C)(C)O)nc2)c2cnc3[nH]ccc3n12 [AC.1.24] gave an IC50 of 0.1 to 1 µM.
COc1c(C)cc(-c2nc(C)n3c2cnc2[nH]ccc23)cc1C [AC.1.25] gave an IC50 of less than 0.1 µM.
Cc1nc(-c2ccc3c(c2)CCO3)c2cnc3[nH]ccc3n12 [AC.1.26] showed an IC50 of 0.1 to 1 µM.
With Cc1cc(-c2nc(C)n3c2cnc2[nH]ccc23)ccc1N1CCOCC1 [AC.1.27] the IC50 was less than 0.1 µM.
Cc1nc(-c2cnn(CC(C)(C)O)c2)c2cnc3[nH]ccc3n12 [AC.1.28] was tested, and the IC50 was 0.1 to 1 µM.
For CCCNC(=O)c1ccc(-c2nc(C)n3c2cnc2[nH]ccc23)cc1 [AC.1.29], the IC50 was less than 0.1 µM.
In the case of Cc1cc(-c2nc(C)n3c2cnc2[nH]ccc23)ccc1N1CCN(C)CC1 [AC.1.30], the IC50 is reported as less than 0.1 µM.
For COc1ccc(-c2nc(C)n3c2cnc2[nH]ccc23)s1 [AC.1.31], the IC50 was less than 0.1 µM.
CC(=O)c1ccc(-c2nc(C)n3c2cnc2[nH]ccc23)s1 [AC.1.32] showed an IC50 of 0.1 to 1 µM.
In the case of Cc1nc(-c2ccc(C3(O)COC3)cc2)c2cnc3[nH]ccc3n12 [AC.1.33], the IC50 is reported as 0.1 to 1 µM.
Cc1nc(-c2ccc(CO)cc2)c2cnc3[nH]ccc3n12 [AC.1.34] gave an IC50 of 0.1 to 1 µM.
In the case of Cc1nc(-c2ccc(CC(C)(C)O)cc2)c2cnc3[nH]ccc3n12 [AC.1.35], the IC50 is reported as 0.1 to 1 µM.
Cc1nc(-c2ccc(C3(CO)CC3)cc2)c2cnc3[nH]ccc3n12 [AC.1.36] was tested, and the IC50 was 0.1 to 1 µM.
In the case of COc1ccc(-c2nc(C)n3c2cnc2[nH]ccc23)cc1C [AC.1.37], the IC50 is reported as 0.1 to 1 µM.
Cc1nc(-c2ccc(CNS(=O)(=O)C3CC3)cc2)c2cnc3[nH]ccc3n12 [AC.1.38] showed an IC50 of 0.1 to 1 µM.
For Cc1nc(-c2cccc(S(C)(=O)=O)c2)c2cnc3[nH]ccc3n12 [AC.1.39], the IC50 was 0.1 to 1 µM.
For Cc1nc(-c2ccc(S(=O)(=O)NC3CC3)cc2)c2cnc3[nH]ccc3n12 [AC.1.40], the IC50 was 0.1 to 1 µM.
In the case of COc1ccc(-c2nc(C)n3c2cnc2[nH]ccc23)cc1OC [AC.1.41], the IC50 is reported as less than 0.1 µM.
COc1ccc(-c2nc(C)n3c2cnc2[nH]ccc23)cc1Cl [AC.1.42] showed an IC50 of 0.1 to 1 µM.
Molecule COc1cc2c(-c3cc4c(ncc5cnn(C)c54)[nH]3)cn(C)c2cn1 [AC.2.1] has an IC50 of less than 0.1 µM.
Molecule COc1cnc2c(c1)c(-c1cc3c(ncc4cnn(C)c43)[nH]1)cn2C [AC.2.2] has an IC50 of less than 0.1 µM.
In the case of COc1cccc(-c2nc(C3CCCCC3)n3c2cnc2[nH]ccc23)c1 [AC.3.1], the IC50 is reported as 1 to 10 µM.
For Fc1ccc(-c2nc(C3CCCCC3)n3c2cnc2[nH]ccc23)cc1 [AC.3.2], the IC50 was 1 to 10 µM.
CC(=O)Nc1cccc(-c2nc(C3CCCCC3)n3c2cnc2[nH]ccc23)c1 [AC.3.3] was tested, and the IC50 was 0.1 to 1 µM.
CC(=O)c1cccc(-c2nc(C3CCCCC3)n3c2cnc2[nH]ccc23)c1 [AC.3.4] gave an IC50 of 0.1 to 1 µM.
Work on CC(=O)Nc1ccc(-c2nc(C3CCCCC3)n3c2cnc2[nH]ccc23)cc1 [AC.3.7] yielded an IC50 of 0.1 to 1 µM.
Work on Cn1ccc2cc(-c3nc(C4CCCCC4)n4c3cnc3[nH]ccc34)ccc21 [AC.3.8] yielded an IC50 of 0.1 to 1 µM.
In the case of CN1CCN(Cc2ccc(-c3nc(C4CCCCC4)n4c3cnc3[nH]ccc34)cc2)CC1 [AC.3.14], the IC50 is reported as 0.1 to 1 µM.
NS(=O)(=O)c1ccc(-c2nc(C3CCCCC3)n3c2cnc2[nH]ccc23)cc1 [AC.3.15] was tested, and the IC50 was 0.1 to 1 µM.
c1cnc(-c2nc(C3CCCCC3)n3c2cnc2[nH]ccc23)cn1 [AC.3.16] was tested, and the IC50 was 1 to 10 µM.
In the case of COCCNC(=O)c1ccc(-c2nc(C3CCCCC3)n3c2cnc2[nH]ccc23)cc1 [AC.3.17], the IC50 is reported as 0.1 to 1 µM.
CS(=O)(=O)NCc1ccc(-c2nc(C3CCCCC3)n3c2cnc2[nH]ccc23)cc1 [AC.3.18] gave an IC50 of 0.1 to 1 µM.
Molecule CC(=O)NCCc1ccc(-c2nc(C3CCCCC3)n3c2cnc2[nH]ccc23)cc1 [AC.3.19] has an IC50 of 0.1 to 1 µM.
Molecule O=S(=O)(NCCO)c1cccc(-c2nc(C3CCCCC3)n3c2cnc2[nH]ccc23)c1 [AC.3.21] has an IC50 of 0.1 to 1 µM.
With CN(C)C(=O)c1ccc(-c2nc(C3CCCCC3)n3c2cnc2[nH]ccc23)cc1 [AC.3.22] the IC50 was 0.1 to 1 µM.
c1cc(-c2nc(C3CCCCC3)n3c2cnc2[nH]ccc23)ccn1 [AC.3.23] gave an IC50 of 0.1 to 1 µM.
Molecule CN(C)CCNC(=O)c1ccc(-c2nc(C3CCCCC3)n3c2cnc2[nH]ccc23)cc1 [AC.3.26] has an IC50 of 0.1 to 1 µM.
O=C(c1ccc(-c2nc(C3CCCCC3)n3c2cnc2[nH]ccc23)cc1)N1CCOCC1 [AC.3.28] was tested, and the IC50 was 0.1 to 1 µM.
In the case of CN(C)S(=O)(=O)c1ccc(-c2nc(C3CCCCC3)n3c2cnc2[nH]ccc23)cc1 [AC.3.29], the IC50 is reported as 0.1 to 1 µM.
CC(C)S(=O)(=O)c1ccc(-c2nc(C3CCCCC3)n3c2cnc2[nH]ccc23)cc1 [AC.3.30] gave an IC50 of 0.1 to 1 µM.
With Cc1ccc(-c2nc(C3CCCCC3)n3c2cnc2[nH]ccc23)cc1 [AC.3.32] the IC50 was 0.1 to 1 µM.
Molecule CC(C)(CO)c1ccc(-c2ncn3c2cnc2[nH]ccc23)cc1 [AC.4.1] has an IC50 of less than 0.1 µM.
Molecule OCc1ccc(-c2ncn3c2cnc2[nH]ccc23)cc1 [AC.4.2] has an IC50 of 0.1 to 1 µM.
COc1cc(-c2ncn3c2cnc2[nH]ccc23)ccn1 [AC.4.3] showed an IC50 of 0.1 to 1 µM.
With CC(=O)c1cc(-c2ncn3c2cnc2[nH]ccc23)ccn1 [AC.4.4] the IC50 was 0.1 to 1 µM.
In the case of Cc1cc(-c2ncn3c2cnc2[nH]ccc23)ccn1 [AC.4.5], the IC50 is reported as 0.1 to 1 µM.
In the case of CC(C)(O)c1ccc(-c2ncn3c2cnc2[nH]ccc23)cc1F [AC.4.6], the IC50 is reported as less than 0.1 µM.

Same assay, conditions: Syk catalytic domain (aa 356-635), trFRET, 0.001 mM ATP
Molecule CC(=O)N[C@@H]1C[C@@H](c2nc(-c3ccc(C(C)(C)O)cc3)c3cnc4[nH]ccc4n23)N(S(=O)(=O)C2CC2)C1 (racemic) [N.1.65] has an IC50 of 1 to 10 µM.
Work on CC(C)(O)c1ccc(-c2nc([C@@H]3CCCC[C@H]3CN)n3c2cnc2[nH]ccc23)cc1 (racemic) [N.1.78] yielded an IC50 of 0.1 to 1 µM.
COc1ccc2c(c1)c(-c1cc3c(ncc4cnc([C@@H]5CC[C@H](N)C5)n43)[nH]1)cn2C (relative stereo) [T.1.1, cis-3-(7-(5-Methoxy-1-methyl-1H-indol-3-yl)-6H-imidazo[1,5-a]pyrrolo[2,3-e]pyrazin-1-yl)cyclopentanamine diacetate] was tested, and the IC50 was less than 0.1 µM.
Work on CS(=O)(=O)c1cccc(-c2cc3c(ncc4cnc([C@@H]5CC[C@H](N)C5)n43)[nH]2)c1 (relative stereo) [T.1.1.5, (cis)-3-(7-(3-(Methylsulfonyl)phenyl)-6H-imidazo[1,5-a]pyrrolo[2,3-e]pyrazin-1-yl)cyclopentanamine] yielded an IC50 of 0.1 to 1 µM.
